pEC50: −log10 of the molar value. Converted amounts (≈) assume the structure as drawn. The source made the active and inactive calls. Some results are limits rather than exact numbers.

The subject of experiment [1] is Staphylococcus aureus. The experiment in a line: Antibacterial activity against Staphylococcus aureus ATCC 6538P assessed as change in bacterial surface protein level at sub-MIC by SDS-PAGE analysis. It counts as functional, organism-based.
Experiment [2] concerns Staphylococcus aureus. The experiment in a line: Antibacterial activity against Staphylococcus aureus ATCC 6538P assessed as change in bacterial surface protein level at sub-MIC by zymographic analysis. It counts as functional, organism-based.
The subject of experiment [3] is Staphylococcus epidermidis. The experiment in a line: Antibacterial activity against Staphylococcus epidermidis ATCC 35984 assessed as modification of bacterial surface protein pattern at 14 uM by zymographic analysis. The format is functional, organism-based.
Experiment [4] relates to Staphylococcus aureus. The experiment in a line: Antibacterial activity against Staphylococcus aureus ATCC 6538P assessed as inhibition of biofilm formation after 24 hrs by crystal violet staining. It counts as functional, organism-based.
Experiment [5] deals with Staphylococcus epidermidis. The experiment is described as follows: Antibacterial activity against Staphylococcus epidermidis ATCC 35984 assessed as inhibition of biofilm formation after 24 hrs by crystal violet staining. The format is functional, organism-based. The settings on record: ATCC 35984, 24 h.
In experiment [6] the test system is Staphylococcus epidermidis. The experiment in a line: Antibacterial activity against Staphylococcus epidermidis ATCC 35984 by broth microdilution method. The format is functional.
For experiment [7], the system named is Staphylococcus epidermidis. The experiment is described as follows: Antibacterial activity against Staphylococcus epidermidis ATCC 35984 incubated in drug free medium for 18 hrs after MIC determination by broth microdilution method. The format is functional. The settings on record: ATCC 35984, 18 h. A general note: Dilution methods test growth across graded concentrations, often in twofold steps.

The test system of experiment [8] is Staphylococcus aureus. The experiment is described as follows: Antibacterial activity against Staphylococcus aureus ATCC 6538P assessed as inhibition of planktonic growth at sub-MIC measured up to 25 hrs. It counts as functional, organism-based.
Experiment [9] concerns Staphylococcus aureus. The experiment in a line: Antibacterial activity against Staphylococcus aureus ATCC 6538P incubated in drug free medium for 18 hrs after MIC determination by broth microdilution method. The format is functional.
In experiment [10] the test system is Staphylococcus aureus. The experiment in a line: Antibacterial activity against Staphylococcus aureus ATCC 6538P by broth microdilution method. It counts as functional.
The subject of experiment [11] is Staphylococcus epidermidis. The experiment in a line: Antibacterial activity against Staphylococcus epidermidis ATCC 35984 assessed as inhibition of planktonic growth at sub-MIC measured up to 25 hrs. It counts as functional, organism-based.
In experiment [12] the test system is Staphylococcus epidermidis. The experiment is described as follows: Antibacterial activity against Staphylococcus epidermidis ATCC 35984 assessed as modification of bacterial surface protein pattern at 4 uM by zymographic analysis. The format is functional, organism-based.
In experiment [13] the test system is Staphylococcus epidermidis. The experiment is described as follows: Antibacterial activity against Staphylococcus epidermidis ATCC 35984 assessed as disappearance of bacterial surface proteins level at sub-MIC by zymographic analysis. It counts as functional, organism-based.
In experiment [14] the test system is Staphylococcus epidermidis. The experiment in a line: Antibacterial activity against Staphylococcus epidermidis ATCC 35984 assessed as disappearance of bacterial surface protein level at sub-MIC by SDS-PAGE analysis. It counts as functional, organism-based.
Experiment [15] relates to Staphylococcus epidermidis. The experiment is described as follows: Antibacterial activity against Staphylococcus epidermidis ATCC 35984 assessed as modification of bacterial surface protein pattern at 8 uM by zymographic analysis. The format is functional, organism-based.
Experiment [16] is described as follows: Ratio of MIC for Staphylococcus aureus ATCC 6538P to MIC for Staphylococcus epidermidis ATCC 35984. It counts as functional.

By pEC50 is commonly meant the negative decadic logarithm of the EC50, by convention in mol/L. For orientation: MIC means the least concentration at which growth counts as inhibited. Read a low MIC as a more susceptible organism. The MBC is the smallest concentration meeting the test's criterion for killing. Read a low MBC as more potent killing. Take `Oc1ccc(-c2cc3ccccc3o2)c(O)c1`: the result (in the experiment on Staphylococcus aureus [1]; in the experiment on Staphylococcus aureus [2]; in [3]; in the experiment with Staphylococcus aureus [8]; in experiment [11]) was inactive. Moreover, the pEC50 with Staphylococcus aureus [4] is 5.09; in experiment [5], 4.63. The minimal inhibitory concentration (MIC) (in experiment [6]; in the experiment on Staphylococcus aureus [10]) was 55.3 µM (≈ 12.5 µg/mL) in each case. Besides, the MBC (in experiment [7]; against Staphylococcus aureus [9]) was 55.3 µM (≈ 12.5 µg/mL) throughout.
For `COc1ccc2c(c[n+](C)c3c4cc5c(cc4ccc23)OCO5)c1OC` [CHELERYTHRINE CHLORIDE], the result (in the experiment with Staphylococcus aureus [1]; in the experiment with Staphylococcus aureus [2]; in [12]; in the experiment with Staphylococcus aureus [8]; in experiment [11]) was inactive. In addition, the pEC50 in the experiment with Staphylococcus aureus [4] is 4.82; in experiment [5] it was 5.07. Further, the MIC (in experiment [6]; against Staphylococcus aureus [10]) was 16.3 µM each time. The minimal bactericidal concentration (MBC) (in experiment [7]; against Staphylococcus aureus [9]) was above 260 µM throughout.
On to `Oc1cc(O)c2c(c1)O[C@@]1(c3ccc(O)c(O)c3)Oc3cc(O)c4c(c3[C@@H]2[C@H]1O)O[C@H](c1ccc(O)c(O)c1)[C@H](O)C4` [PROANTHOCYANIDIN A2], for which the result (in the experiment on Staphylococcus aureus [1]; with Staphylococcus aureus [2]; in the experiment with Staphylococcus aureus [8]; in [11]) was inactive. In addition, the pEC50 in the experiment with Staphylococcus aureus [4] was 5.16; in experiment [5], 5.12. Also, the outcome in experiment [13] and in [14] was Active. Further, the MIC (in experiment [6]; with Staphylococcus aureus [10]) was above 169 µM each time. The MBC (in [7]; with Staphylococcus aureus [9]) was above 169 µM throughout.
Regarding `C[n+]1cc2c3c(ccc2c2ccc4cc5c(cc4c21)OCO5)OCO3` [SANGUINARIUM], the outcome (with Staphylococcus aureus [1]; with Staphylococcus aureus [2]; in experiment [15]; with Staphylococcus aureus [8]; in [11]) was inactive. The pEC50 with Staphylococcus aureus [4] is 4.61; in [5], 5.36. Further, the Ratio in experiment [16] was 4. For the same compound, the MIC is 8.5 µM in [6] and 34 µM against Staphylococcus aureus [10]. Besides, the MBC (in [7]; with Staphylococcus aureus [9]) was 34 µM in each case. For the same compound, in [14], the result was Active.

These data come from ChEMBL document CHEMBL1949602, “Bacterial biofilm formation inhibitory activity revealed for plant derived natural compounds” (Bioorg Med Chem, 2012).
